# Measured values as given in PMC11985751, “Synthesis, bioactivity, and molecular docking studies: novel arylpiperazine derivatives as potential new-resistant AR antagonists” (Frontiers in Chemistry, 2025).
# Tests used:
# DU145 = test: In vitro cytotoxicity, CCK-8 assay; assay type: cell-based; details: Homo sapiens, DU-145; DU145 cells, CCK-8, mean ± SD of three trials
# Method: (§1) PC-3 and WPMY-1 cells were cultured in Dulbecco’s modiffcation Eagle’s medium (DMEM, Invitrogen, Carlsbad, CA, United States) supplemented with 10% fetal bovine serum (FBS, Hyclone, Logan, UT, United States), 100 U/mL penicillin and 0.1 mg/mL streptomycin (Invitrogen). DU145 cells were cultured in RPMI1640 media supplemented with 10% fetal bovine serum (FBS, Hyclone), 100 U/mL penicillin and 0.1 mg/mL streptomycin (Invitrogen). LNCaP cells were cultured in F12 media supplemented with 10% fetal bovine serum (FBS, Hyclone), 100 U/mL penicillin and 0.1 mg/mL streptomycin (Invitrogen). The cells were incubated at 37°C in a humidified atmosphere with 5% CO2([Chen et al., 2025]; [Jiang et al., 2024]). […]
# (§2) The compound concentrations were set at 30, 15, 7.5, 3.75, 1.88, and 0.94 μmol/L. The absorbance (A) was measured at 450 nm using a microplate reader. […] All experiments were repeated three times under identical conditions, and the mean value was taken as the final result.
# (§3) The cytotoxic activity of derivatives 5–24 against three human prostate cancer cell lines (PC-3, LNCaP, and DU145) and one type of human normal prostate epithelial cells was evaluated using the CCK-8 method.
# WPMY-1 = test: In vitro cytotoxicity, CCK-8 assay (normal prostatic epithelial cells); assay type: cell-based; details: Homo sapiens; WPMY-1 normal prostatic epithelial cells, CCK-8, mean ± SD of three trials
# Method: as §1, §2, §3
# AR = target: T1, AR (Homo sapiens, UniProt P10275); test: AR reporter gene (luciferase) assay, co-treatment with 1 nM R1881; assay type: cell-based; details: 10 μM compound, inhibition rate as ratio to R1881 control, read-out: AR antagonistic activity% (10 μM)
# T1 sequence (P10275 1-920): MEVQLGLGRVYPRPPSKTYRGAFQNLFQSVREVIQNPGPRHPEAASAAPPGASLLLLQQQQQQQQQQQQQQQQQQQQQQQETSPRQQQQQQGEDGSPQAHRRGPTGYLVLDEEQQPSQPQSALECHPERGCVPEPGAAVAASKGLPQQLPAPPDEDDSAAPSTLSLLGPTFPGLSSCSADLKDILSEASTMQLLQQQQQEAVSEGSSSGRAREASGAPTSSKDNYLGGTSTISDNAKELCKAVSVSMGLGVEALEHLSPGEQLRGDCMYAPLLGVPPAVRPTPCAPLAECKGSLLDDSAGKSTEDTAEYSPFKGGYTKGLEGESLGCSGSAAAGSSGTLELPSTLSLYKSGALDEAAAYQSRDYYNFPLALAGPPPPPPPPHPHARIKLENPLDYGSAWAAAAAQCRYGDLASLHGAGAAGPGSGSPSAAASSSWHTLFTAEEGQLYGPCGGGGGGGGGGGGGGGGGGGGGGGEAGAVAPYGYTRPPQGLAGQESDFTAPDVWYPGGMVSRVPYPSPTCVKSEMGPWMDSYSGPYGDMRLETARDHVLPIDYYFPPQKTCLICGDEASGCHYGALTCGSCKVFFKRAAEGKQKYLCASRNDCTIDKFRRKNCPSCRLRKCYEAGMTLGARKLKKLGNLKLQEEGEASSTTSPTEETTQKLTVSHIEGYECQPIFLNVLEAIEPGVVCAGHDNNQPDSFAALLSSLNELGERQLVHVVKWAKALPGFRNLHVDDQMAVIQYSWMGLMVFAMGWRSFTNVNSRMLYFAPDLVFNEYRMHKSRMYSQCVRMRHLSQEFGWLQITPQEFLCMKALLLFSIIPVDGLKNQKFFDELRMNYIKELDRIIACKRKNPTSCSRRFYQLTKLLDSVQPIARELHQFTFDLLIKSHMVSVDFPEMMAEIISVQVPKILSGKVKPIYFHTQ
# Method: RLUs were measured using a luminometer (GloMaxTM 96-Microplate Luminometer, Promega) and are reported as the mean ± SEM of three individual experiments. For agonists, fold of induction = LUinduced/RLUuninduced. For antagonists, % of control = 100 × RLU (agonist + antagonist)/RLU (agonist alone). All RLUs were normalized against ffreffy RLUs/Renilla RLUs. Data are expressed as EC50/IC50 values in μM, and the IC50 of […] (μM) was calculated by plotting the data using nonlinear regression analysis in Graph-Pad Prism 5 software.
# AR-LBD (GST) = target: T2, AR-LBD (GST) (Rattus norvegicus, UniProt P15207); test: Fluorescence polarization, PolarScreen AR Competitor Assay, Green
# T2 sequence (P15207 651-882 limits assumed): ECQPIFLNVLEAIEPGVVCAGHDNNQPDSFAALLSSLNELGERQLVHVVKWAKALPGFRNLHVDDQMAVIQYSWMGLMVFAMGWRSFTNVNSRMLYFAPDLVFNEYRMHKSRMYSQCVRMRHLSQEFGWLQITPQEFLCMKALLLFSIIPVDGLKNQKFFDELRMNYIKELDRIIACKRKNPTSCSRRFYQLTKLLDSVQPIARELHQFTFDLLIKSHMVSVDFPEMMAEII
# Method: Brieffy, the assay entails titration of the test compound against a preformed complex of Fluormone™AL Green and the AR-LBD (GST). […] Data analysis for the ligand binding assays was performed using Prism software (GraphPad Software, Inc.).
# LNCaP = test: In vitro cytotoxicity, CCK-8 assay; assay type: cell-based, human; details: LNCaP cells, CCK-8, mean ± SD of three trials
# Method: PC-3 and WPMY-1 cells were cultured in Dulbecco’s modiffcation Eagle’s medium (DMEM, Invitrogen, Carlsbad, CA, United States) supplemented with 10% fetal bovine serum (FBS, Hyclone, Logan, UT, United States), 100 U/mL penicillin and 0.1 mg/mL streptomycin (Invitrogen). DU145 cells were cultured in RPMI1640 media supplemented with 10% fetal bovine serum (FBS, Hyclone), 100 U/mL penicillin and 0.1 mg/mL streptomycin (Invitrogen). LNCaP cells were cultured in F12 media supplemented with 10% fetal bovine serum (FBS, Hyclone), 100 U/mL penicillin and 0.1 mg/mL streptomycin (Invitrogen). The cells were incubated at 37°C in a humidified atmosphere with 5% CO2([Chen et al., 2025]; [Jiang et al., 2024]).
# The proliferative capacity of cells was evaluated through the implementation of a Cell Counting Kit-8 (CCK-8) assay, supplied by Dojindo (Japan), to quantify cellular growth. Post-transfection, cells were dispensed into a 96-well microplate at a density of 3 × 10^3 cells per well and incubated for intervals of 0, 24, 48, 72, 96, and 120 h. Following this, 10 μL of the CCK-8 solution was introduced into each well and the plates were returned to the incubator for an additional 2-h period at 37°C under 5% CO2 conditions. Absorbance readings at 450 nm were subsequently taken using an ELISA reader manufactured by Bio Tek (United States) ([Chen et al., 2022]; [Zhou et al., 2024]).
# as §2, §3
# PC-3 = test: In vitro cytotoxicity, CCK-8 assay; assay type: cell-based, human; details: CCK-8, mean ± SD of three trials
# Method: as §1, §2, §3
activity at 10 µM (AR),IC50 (AR-LBD (GST)),SMILES,IC50 (DU145),IC50 (WPMY-1),"IC50 (LNCaP; Homo sapiens, LNCaP)","IC50 (PC-3; Homo sapiens, PC-3, PC-3 cells)",IC50 (PC-3; PC-3 cells),IC50 (LNCaP)
> 60%,1.66 ± 0.12 µM,"Cc1ccc(OCCc2ccc(CN3CCN(C(c4ccccc4)c4ccccc4)CC3)cc2)cc1C [Compound 20, 1-benzhydryl-4-(4-(2-(3,4-dimethylphenoxy)ethyl)benzyl)piperazine]",3.89 ± 0.14 µM,> 50 µM,–,–,–,–
51.2 ± 1.3%,2.01 ± 0.15 µM,"Clc1cc(Cl)cc(OCCc2ccc(CN3CCN(C(c4ccccc4)c4ccccc4)CC3)cc2)c1 [Compound 11, 1-benzhydryl-4-(4-(2-(3,5-dichlorophenoxy)ethyl)benzyl)piperazine]",17.43 ± 0.04 µM,> 50 µM,> 50 µM,–,–,–
–,–,"N#Cc1ccc(OCCc2ccc(CN3CCN(C(c4ccccc4)c4ccccc4)CC3)cc2)cc1 [Compound 8, 4-(4-((4-benzhydrylpiperazin-1-yl)methyl)phenethoxy)benzonitrile]",19.83 ± 0.14 µM,17.56 ± 0.12 µM,22.36 ± 0.2 µM,12.54 ± 0.11 µM,–,–
–,–,"COc1ccccc1N1CCN(CC(O)COc2cccc3ccccc23)CC1 (stereo not drawn) [Naftopidil, reference compound]",34.58 ± 0.31 µM,> 50 µM,22.4 ± 0.61 µM,42.1 ± 0.79 µM,–,–
47.3 ± 0.6%,2.87 ± 0.22 µM,"FC(F)(F)c1ccc(OCCc2ccc(CN3CCN(C(c4ccccc4)c4ccccc4)CC3)cc2)cc1 [Compound 24, 1-benzhydryl-4-(4-(2-(4-(trifluoromethyl)phenoxy)ethyl)benzyl)piperazine]",5.76 ± 0.14 µM,> 50 µM,14.6 ± 0.18 µM,< 5 µM,3.94 ± 0.14 µM,–
> 60%,1.14 ± 0.12 µM,"c1ccc(C(c2ccccc2)N2CCN(Cc3ccc(CCOc4cccc5c4CCCC5)cc3)CC2)cc1 [Compound 17, 1-benzhydryl-4-(4-(2-((5,6,7,8-tetrahydronaphthalen-1-yl)oxy)ethyl)benzyl)piperazine]",7.32 ± 0.08 µM,> 50 µM,–,–,–,–
> 60%,1.01 ± 0.03 µM,"Cc1ccccc1OCCc1ccc(CN2CCN(C(c3ccccc3)c3ccccc3)CC2)cc1 [Compound 19, 1-benzhydryl-4-(4-(2-(o-tolyloxy)ethyl)benzyl)piperazine]",0.87 ± 0.04 µM,> 50 µM,–,–,–,–
–,–,"c1ccc(C(c2ccccc2)N2CCN(Cc3ccc(CCOc4ccc5c(c4)CCCC5)cc3)CC2)cc1 [Compound 18, 1-benzhydryl-4-(4-(2-((5,6,7,8-tetrahydronaphthalen-2-yl)oxy)ethyl)benzyl)piperazine]",14.4 ± 0.15 µM,> 50 µM,> 50 µM,5.02 ± 0.12 µM,–,–
–,–,"Fc1ccc(OCCc2ccc(CN3CCN(C(c4ccccc4)c4ccccc4)CC3)cc2)cc1 [Compound 6, 1-benzhydryl-4-(4-(2-(4-fluorophenoxy)ethyl)benzyl)piperazine]",> 50 µM,> 50 µM,> 50 µM,34.39 ± 0.17 µM,–,–
–,–,"Cc1ccc(OCCc2ccc(CN3CCN(C(c4ccccc4)c4ccccc4)CC3)cc2)cc1 [Compound 15, 1-benzhydryl-4-(4-(2-(p-tolyloxy)ethyl)benzyl)piperazine]",13.7 ± 0.14 µM,14.72 ± 0.14 µM,9.29 ± 0.23 µM,20.49 ± 0.12 µM,–,–
> 60%,1.72 ± 0.12 µM,"Brc1ccc(OCCc2ccc(CN3CCN(C(c4ccccc4)c4ccccc4)CC3)cc2)cc1 [Compound 23, 1-benzhydryl-4-(4-(2-(4-bromophenoxy)ethyl)benzyl)piperazine]",1.42 ± 0.11 µM,> 50 µM,< 5 µM,–,–,3.86 ± 0.13 µM
–,–,"c1ccc(OCCc2ccc(CN3CCN(C(c4ccccc4)c4ccccc4)CC3)cc2)cc1 [Compound 5, 1-benzhydryl-4-(4-(2-phenoxyethyl)benzyl)piperazine]",> 50 µM,> 50 µM,> 50 µM,13.08 ± 0.12 µM,–,–
–,–,"CCOc1ccc(OCCc2ccc(CN3CCN(C(c4ccccc4)c4ccccc4)CC3)cc2)cc1 [Compound 16, 1-benzhydryl-4-(4-(2-(4-ethoxyphenoxy)ethyl)benzyl)piperazine]",> 50 µM,> 50 µM,> 50 µM,13.6 ± 0.09 µM,–,–
–,–,"Ic1ccc(OCCc2ccc(CN3CCN(C(c4ccccc4)c4ccccc4)CC3)cc2)cc1 [Compound 9, 1-benzhydryl-4-(4-(2-(4-iodophenoxy)ethyl)benzyl)piperazine]",> 50 µM,> 50 µM,> 50 µM,15.2 ± 0.19 µM,–,–
–,–,"Cc1cccc(OCCc2ccc(CN3CCN(C(c4ccccc4)c4ccccc4)CC3)cc2)c1 [Compound 12, 1-benzhydryl-4-(4-(2-(m-tolyloxy)ethyl)benzyl)piperazine]",34.43 ± 0.15 µM,28.54 ± 0.16 µM,19.6 ± 0.23 µM,> 50 µM,–,–
–,–,"Clc1ccc(OCCc2ccc(CN3CCN(C(c4ccccc4)c4ccccc4)CC3)cc2)cc1Cl [Compound 10, 1-benzhydryl-4-(4-(2-(3,4-dichlorophenoxy)ethyl)benzyl)piperazine]",> 50 µM,> 50 µM,> 50 µM,17.44 ± 0.07 µM,–,–
–,–,"Brc1ccccc1OCCc1ccc(CN2CCN(C(c3ccccc3)c3ccccc3)CC2)cc1 [Compound 14, 1-benzhydryl-4-(4-(2-(2-bromophenoxy)ethyl)benzyl)piperazine]",> 50 µM,> 50 µM,> 50 µM,19.12 ± 0.16 µM,–,–
–,–,"Clc1ccccc1OCCc1ccc(CN2CCN(C(c3ccccc3)c3ccccc3)CC2)cc1 [Compound 13, 1-benzhydryl-4-(4-(2-(2-chlorophenoxy)ethyl)benzyl)piperazine]",21.24 ± 0.16 µM,17.83 ± 0.17 µM,12.2 ± 0.25 µM,15.35 ± 0.08 µM,–,–
